# From patent publication US8003609B2, “Method for ameliorating pain by modification of NMDA receptors through inhibition of Src” (The Hospital for Sick Children, priority 2004, dated 2011)
# How the values were obtained:
# [1] = molecular target: T1, ND2.1-GST (Homo sapiens, UniProt P03891, A265T); experiment: in vitro binding of biotinylated Src peptides to ND2.1-GST (blot / dot blot); conditions: biotinylated peptide, streptavidin-HRP detection
# T1 construct: made in house; host or cells: bacteria
# T1 sequence (P03891 239-318 A265T): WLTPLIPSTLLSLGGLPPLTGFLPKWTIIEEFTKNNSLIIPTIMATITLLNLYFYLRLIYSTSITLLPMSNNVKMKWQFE
# Experimental: Src, Fyn, and ND2 recombinant proteins were prepared. The cDNAs encoding the SH3 and SH2 domains of mouse n-Src and Fyn were PCR subcloned, ligated in frame into pGEX4T-1 (Amersham Pharmacia Biotech, Baie d'Urfé, Québec), and sequenced. These plasmids, as well as plasmids encoding the unique domains of Src and Fyn in pGEX2T'6, were transformed into BL21 bacteria, and GST fusion proteins were purified by glutathione affinity chromatography. To create the ND2.1, ND2.2, and ND2.3 GST fusion proteins, cDNAs encoding amino acids 239-321 (ND2.1-GST; SEQ ID NO:7), amino acids 189-238 (ND2.2-GST; SEQ ID NO:11), and amino acids 1-188 (ND2.3-GST; SEQ ID NO:13) of human ND2 were PCR subcloned and ligated into pGEX4T-1 (the nucleotide sequence encoding ND2 is SEQ ID NO:8 and the amino acid sequence is SEQ ID NO:9; the nucleotide sequences encoding ND2.1; ND2.2 and ND2.3 are SEQ ID NOS:6, 10 and 12, respectively). Using PCR-based single nucleotide mutagenesis, all cDNAs encoding ND2 fusion proteins were corrected for differences between mitochondrial and nuclear codons to prevent premature translation termination and protein truncation. All constructs were then confirmed by sequencing. The plasmids were transformed into bacteria, and GST fusion proteins were purified by glutathione affinity chromatography.
# Src40-58 and scrambled Src peptides were biotinylated by incubating with Sulfo-NHS-Biotin (Pierce Chemical Co., Rockford, Ill.) for 30 minutes at room temperature (SEQ ID NO:4, Src protein). […] Bound probe was then detected on film using an ECL kit.
# To detect the binding of ND2.1-GST with Src peptides, the ND2.1-GST fusion protein was purified on glutathione SEPHAROSE. […] Bound probe was then detected on film using an ECL kit (Amersham Pharmacia Biotech, Baie d'Urfé, Québec).
# Src40-58, Src40-49, Src49-58, scrambled Src40-58, TAT-Src40-49, and scrambled TAT-Src40-49 peptides were biotinylated by incubating with Sulfo-NHS-Biotin (Pierce Chemical Co., Rockford, Ill.) for 30 minutes at room temperature. […] Bound probe was then detected on film using an ECL kit.
# [2] = tested on: NMDAR; experiment: mEPSC whole cell recordings in cultured hippocampal neurons, NMDAR component; type: cell-based, rat
# Experimental: Fetal rat hippocampal neurons were prepared, cultured, and used for electrophysiological recordings 12-17 days after plating. Methods for whole cell recordings are described in Pelkey et al. (Neuron 34:127-138 2002).
# In contrast, in control experiments administering EPQ(pY)EEIPIA (SEQ ID NO:5) increased the NMDAR component of mEPSCs by 172±28% and application of Src40-58 decreased the NMDAR component to 56±4% (FIGS. 5D-F). […] Composite traces are shown in black, the NMDAR component in dark grey, and the AMPAR component in light grey. Scale bars are 50 ms/10 pA. […] NMDA component data were calculated as Q20′/Q2′, and AMPA component data were calculated as A20′/A2′. […] An * indicates a significant difference, Student's t-test, p<0.05. Taking our results together, it is concluded that Src-dependent regulation of the activity of NMDARs depends on expression of ND2 through its anchoring of Src to the NMDAR complex.
# [3] = tested on: LTP in CA1 neurons; conditions: cited from earlier work
substance,measurement,setting,value
Src40-58: peptide comprising amino acid residues 40-58 of SEQ ID NO:4 (Src) (PASADGHRGPSAAFAPAAA; listed as Homo sapiens),binding to ND2.1-GST,[1],bind directly
same,"NMDAR component of mEPSCs, decreased to","[2]; control experiments, cultured hippocampal neurons",56±4%
same,NMDAR component of the mEPSCs,[2]; neurons treated with chloramphenicol for 48 hours,not affected
same,LTP in CA1 neurons,[3],prevented
